Tests used:
hPTPN1 = target: T1, hPTPN1 (Homo sapiens, UniProt P18031); experiment: In vitro PTPase assay (DiFMUP), PTPN1; assay type: biochemical; conditions: 60-min preincubation
T1 construct: the catalytic domains of PTPN1 and PTPN6 were expressed as glutathione-S-transferase (GST) fusion proteins; GST (N); made in house; host or cells: Escherichia coli BL21
T1 sequence (P18031 3-277 limits assumed): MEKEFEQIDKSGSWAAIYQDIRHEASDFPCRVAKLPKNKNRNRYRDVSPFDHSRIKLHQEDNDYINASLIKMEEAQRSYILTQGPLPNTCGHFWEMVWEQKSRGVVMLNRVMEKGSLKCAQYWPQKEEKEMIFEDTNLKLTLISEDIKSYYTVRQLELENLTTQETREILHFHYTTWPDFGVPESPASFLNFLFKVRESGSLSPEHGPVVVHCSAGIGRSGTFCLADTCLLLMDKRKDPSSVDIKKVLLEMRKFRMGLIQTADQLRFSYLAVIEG
Method: Figure 4 NAZ2329, an allosteric inhibitor of R5 RPTP subfamily members. (A) Structure of NAZ2329. (B) Effect of preincubation of NAZ2329 on its inhibitory activity against PTPRZ. Recombinant human PTPRZ1 enzyme (the whole intracellular region) was premixed with NAZ2329 for the indicated times and followed by addition of a fluorogenic DiFMUP (non-specific PTP substrate, 6,8-difluoro-4-methylumbiliferyl phosphate) to measure PTP inhibitory activity. (C) Time dependence. The PTPRZ1 enzyme was added to the inhibitor–substrate mixture, and the inhibitory activity was determined at each time point relative to the vehicle control. (D) Reversibility of inhibition. […] The mixture was then 20-fold diluted, and recovered PTP activity was expressed as the relative activity compared with the vehicle-treated enzyme. […] PTPRZ1 enzymes were preincubated with NAZ2329 for 60 min, and the PTP activity was measured using DiFMUP. […]
Recombinant proteins corresponding to the entire intracellular regions (ICRs) of PTPRZ1, PTPRA, and PTPRM were expressed using a baculovirus-silkworm expression system, and purified as described. The ICRs of PTPRG, PTPRS, and PTPRB and the catalytic domains of PTPN1 and PTPN6 were expressed as glutathione-S-transferase (GST) fusion proteins from each pGEX plasmid in Escherichia coli strain BL21 (ref. [6]). […]

[1] = test system: oligodendrocyte precursor OL1 cells; experiment: OL1 oligodendrocyte differentiation assay; assay type: cell-based, mouse; conditions: 10 days in differentiation media
Method: Figure 6 Effects of NAZ2329 treatment on oligodendrocyte differentiation. Mouse oligodendrocyte-lineage OL1 cells were cultured in differentiation media containing the indicated concentrations of NAZ2329. After 10 days, cells were fixed with formalin and stained with anti-NG2 proteoglycan (oligodendrocyte precursor cells, red) and anti-MBP (oligodendrocyte, green) antibodies, in conjunction with the DAPI-labeling of nuclei (blue). Scale bars, 100 µm.
The preparation of mouse oligodendrocyte-lineage OL1 cells was described previously. […] On the 10th day of the culture, differentiation from oligodendrocyte precursor cells to oligodendrocytes was assessed was described previously[14]–[16]. Briefly, cells were fixed and stained with anti-NG2 (a specific marker for oligodendrocyte precursor cells) and anti-MBP (a marker for matured oligodendrocytes), and the observed with a standard fluorescence microscope (Biozero BZ8000, Keyence). Differentiation from oligodendrocyte precursor cells to oligodendrocytes was expressed as the ratio of MBP-positive cells to NG2-positive cells.

IC50 (hPTPN1): 14.5 µM
SMILES: CCOc1ccc(C(F)(F)F)cc1CSc1ccsc1C(=O)NS(=O)(=O)c1ccccc1 [NAZ2329]
differentiation of OL1 cells to mature oligodendrocytes (MBP-positive/NG2-positive ratio) [1]: dose-dependently induced the differentiation
